Experimental data from PubChem BioAssay (NCI).
Several values for one entry are separate records, joined by “and”; a condition that tells them apart may be missing. Identical values can stand only once.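 1) Cells in 96-well plates. 2) Compound, 48 h, 5 concentrations. 3) Linear interpolation between surrounding doses. 4) Unreached endpoint = highest concentration. GI50 is the concentration that inhibits growth by half. TGI is the concentration that stops growth completely.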

Experiments:
Assay in all cases: NCI tumour cell line growth inhibition, 48 h
[1] = tested on: HOP-62 NSCLC
[2] = tested on: HT29 colon
[3] = tested on: KM12 colon
[4] = tested on: M14 melanoma
[5] = tested on: NCI-H460 lung
[6] = tested on: NCI-H522 lung
[7] = tested on: SF-539 CNS
[8] = tested on: SK-OV-3 ovarian
[9] = tested on: SW-620 colon
[10] = tested on: T-47D breast

Compound | GI50 [1] | TGI [1] | GI50 [2] | TGI [2] | GI50 [3] | TGI [3] | GI50 [4] | TGI [4] | GI50 [5] | TGI [5] | GI50 [6] [µM] | TGI [6] | GI50 [7] | TGI [7] | GI50 [8] | TGI [8] | GI50 [9] | TGI [9] | GI50 [10] | TGI [10]
CN(C(=O)c1ccc(F)cc1C(F)(F)F)C1CCN(c2nnc(-c3ccnn3C)c3ccccc23)CC1 | 65.1 µM | > 100 µM | 55.5 µM | > 100 µM | 52.8 µM | > 100 µM | 46.7 µM | > 100 µM | 53.9 µM | > 100 µM | 16.2 | > 100 µM | > 100 µM | > 100 µM | > 77.9 µM | > 100 µM | > 100 µM | > 100 µM | 10.6 µM | 99.4 µM
O=C(CC12CC3CC(CC(C3)C1)C2)NCCOCCOCCNC(=O)c1cc2c(o1)C(=O)c1ccccc1C2=O | 1.52 µM | 2.86 µM | 2.38 µM | 5.85 µM | 1.58 µM | 5.13 µM | 0.211 µM | 0.462 µM | 0.317 µM | 1 µM | 1.34 | 3.04 µM | 1.14 µM | 2.37 µM | 2.19 µM | 4.71 µM | 1.21 µM | 2.87 µM | 1.8 µM | 5.06 µM
O=C1Nc2ccc(F)c3c(OCCO)cc(-c4ccc[nH]4)c1c23 | 3.07 µM | 13.8 µM | 1.99 µM | 9.95 µM | 0.274 µM | 2.37 µM | 1.4 µM | 12.4 µM | 0.927 µM | 5.14 µM | 2.12 | 11.6 µM | 2.19 µM | 6.12 µM | 1.47 µM | 25 µM | 0.837 µM | 8.23 µM | 0.513 µM | 1.52 µM
Cn1ncc2c(Nc3ccc(Br)cc3)nc(Nc3ccc(Br)cc3)nc21 | 4.22 µM | 15.4 µM | 2.03 µM | 4.32 µM | 1.76 µM | 3.48 µM | 2.09 µM | 4.63 µM | 2.23 µM | 5.23 µM | 3.44 | 15.7 µM | 3.17 µM | 10.8 µM | 10.9 µM | 23.5 µM | 2.93 µM | 8.97 µM | 2.7 µM | 14.6 µM
CS(=O)(=O)c1nccc(-c2c(-c3cccc(OCc4ccc(F)cc4)c3)nc3sccn23)n1 | 57.2 µM | > 100 µM | 53.9 µM | > 100 µM | 2.95 µM | 7.61 µM | 25.9 µM | > 100 µM | 56.7 µM | > 100 µM | 8.15 | > 100 µM | > 94 µM | > 100 µM | 47.4 µM | > 100 µM | 5.32 µM | > 100 µM | 9.52 µM | > 100 µM
Cc1c(Cl)cccc1NC(=O)CC1Sc2ccccc2NC1=O (centres undefined) | – | 42.3 µM and 31.1 µM | – | 63.3 µM | – | > 91.6 µM and 45.9 µM | – | 81.7 µM and 93 µM | – | 61.5 µM and 62.5 µM | – | 64.7 µM and 79.7 µM | – | 45.1 µM and 36.2 µM | – | 33 µM and 39.3 µM | 11 µM and 26.3 µM | 56.8 µM and 77.3 µM | – | 86.5 µM
O=S(=O)(c1cccc(C(F)(F)F)c1)N1c2ccccc2-n2cccc2C1c1cccnc1 (centres undefined) | – | > 66.8 µM | – | > 58 µM | – | > 100 µM | – | > 55.8 µM | – | > 51.1 µM | – | > 53.6 µM | – | > 60.9 µM | – | > 78.9 µM | – | > 60.4 µM | – | > 70.4 µM
CCCC[C@@H]1NC(=O)[C@H](CCCCN)NC(=O)[C@H](CCCNC(=N)N)NC(=O)[C@H](CC(C)C)NC(=O)[C@@H](NC(=O)[C@H](Cc2cccc(Cl)c2)NC(=O)[C@@H]2CCCN2C(=O)[C@@H](NC(C)=O)C(C)C)CCSSC[C@@H](C(=O)N[C@@H](CCCCN)C(=O)N2CCC[C@H]2C(=O)N2CCC[C@H]2C(=O)N[C@@H](CCC(=O)O)C(N)=O)NC(=O)[C@H](Cc2ccccc2)NC(=O)[C@H](CO)NC(=O)[C@H](C)NC(=O)[C@@H]2CCCN2C1=O | > 50 µM | > 50 µM | > 50 µM | > 50 µM | > 50 µM | > 50 µM | > 50 µM | > 50 µM | > 50 µM | > 50 µM | > 50 | > 50 µM | > 50 µM | > 50 µM | > 50 µM | > 50 µM | > 50 µM | > 50 µM | > 50 µM | > 50 µM
OCCN1CCN(CCCN2c3ccccc3Sc3ccc(C(F)(F)F)cc32)CC1 | 3.11 µM and 13.1 µM and 11.6 µM | 9.82 µM and 27.4 µM and 24.7 µM | 0.897 µM and 4.12 µM and 3.23 µM | 1.78 µM and 13.9 µM and 11 µM | 2.35 µM and 8.95 µM | 8.01 µM and 21.6 µM | 0.899 µM and 2.34 µM | 1.73 µM and 6.13 µM | 1.82 µM and 9.47 µM and 4.83 µM | 6.69 µM and 28.4 µM and 23.3 µM | – | 3.49 µM and 30.1 µM and 26.8 µM | 4.88 µM and 10.8 µM and 9.77 µM | 11.3 µM and 26.9 µM and 23.6 µM | 5.55 µM and 14.5 µM and 13.3 µM | 11.7 µM and 29.1 µM and 27.3 µM | 1.93 µM and 11.7 µM and 4.22 µM | 8.01 µM and 25.4 µM and 16.2 µM | 1.36 µM and 8.88 µM and 7.46 µM | 6.12 µM and 25.8 µM and 22.9 µM
C[C@@H]1O[C@@H](O[C@H]2C[C@@H](O)[C@]3(CO)C4C(CC[C@]3(O)C2)[C@@]2(O)CC[C@H](C3=CC(=O)OC3)[C@@]2(C)C[C@H]4O)[C@H](O)[C@H](O)[C@H]1O (some centres undefined) | 0.0137 µM | 0.0385 µM | 0.0248 µM | 0.0836 µM | 0.0512 µM | 0.132 µM | 0.0855 µM | 0.166 µM | 0.0133 µM | 0.0376 µM | 0.0117 | 0.0323 µM | 0.0185 µM | 0.0599 µM | 0.0203 µM | 0.0731 µM | 0.022 µM | 0.0869 µM | 0.0215 µM | 0.0847 µM
COC1/C=C/O[C@@]2(C)Oc3c(C)c(O)c4c(O)c(cc(O)c4c3C2=O)NC(=O)/C(C)=C\C=C\[C@H](C)C(O)[C@@H](C)[C@@H](O)[C@@H](C)[C@H](OC(C)=O)[C@@H]1C (some centres undefined) | 18.8 µM | 32.8 µM and 237 µM | 11.6 µM | 24.3 µM and 34.5 µM | 19 µM | 35.4 µM and 97.2 µM | 13.8 µM | 27 µM and 35.7 µM | 18.8 µM and 32.7 µM | 37 µM and 79.8 µM | 2.72 | 11.2 µM and 20.5 µM | 3.41 µM | 12.5 µM and 69.3 µM | – | 211 µM | 2.72 µM and 7.91 µM | 13.6 µM and 21.9 µM | 8.63 µM | 23.2 µM and 48.5 µM
